Measurements from patent publication US20110033946A1, “DETECTION OF SHORT-CHAIN FATTY ACIDS IN BIOLOGICAL SAMPLES” (HEMAQUEST PHARMACEUTICALS, INC., priority 2009, published 2011).
Values joined by “and” are separate entries in the source; they are usually repeats but may differ in a detail not shown here. Equal values may be shown once.

Key:
Assay type in all cases: physicochemical
[1] = Freeze/thaw cycle stability in dog plasma; conditions: three freeze/thaw cycles at approximately −70° C.
Protocol: (§1) For the remaining validation tests, a calibration curve and triplicates QCs at the low, mid and high levels were analyzed with each sample set. The following samples were also analyzed either in conjunction with one of the precision and accuracy runs or in one of the additional validation runs: Samples from six lots of control dog plasma for specificity. Two concentration levels of unextracted QC-samples in triplicate (solvent standards) were analyzed for the evaluation of the recovery of sodium 2,2-dimethylbutyrate and DMV in dog plasma. Two levels of QC samples (Low QC and High QC in triplicate) were subjected to three freeze/thaw cycles at approximately −70° C. prior to extraction to evaluate freeze/thaw stability. Two levels of QC samples (Low QC and High QC in triplicate) were placed on the bench top for approximately 17 hours prior to extraction for the evaluation of the bench top stability. Triplicate low QC samples and triplicate high QC samples were stored for one month and three months in a freezer at approximately −70° C., and then extracted and analyzed to evaluate long term stability in dog plasma. Three aliquots of a dilution QC sample diluted 10-fold.
The stability of sodium 2,2-dimethylbutyrate in dog plasma was evaluated at approximately −70° C. for three cycles using QC-Low and QC-High samples in triplicate. The freeze time was at least 12 hours, with a minimum thaw time of one hour. The CV % values for the QC-Low and QC-High stability samples are 1.4% and 2.8%, respectively. To calculate the RE %, the measured mean concentration was compared to the nominal concentration. The RE % values for the QC-Low and QC-High stability samples are 1.9% and −8.1%, respectively.

[2] = Bench top stability in rat plasma; conditions: for Bench top stability, RE % (mean vs nominal): room temperature approximately 12.5 hours
Protocol: as §1, with “rat” for “dog”, “specificity; Samples from six lots of control rat plasma fortified with internal standard for specificity;” for “specificity.”, “rat plasma;” for “dog plasma.”, “stability;” for “stability.”
Bench top stability was evaluated at room temperature for approximately 12.5 hours. Triplicate QC-Low and QC-High samples were extracted and analyzed after these storage conditions. The CV % values for the QC-Low and QC-High stability samples are 6.3% and 11.7%, respectively. To calculate the RE %, the measured mean concentration was compared to the nominal concentration. The RE % values for the QC-Low and QC-High stability samples are 7.6% and 9.1%, respectively.

[3] = Stock solution stability at nominal 4° C. (Example 5); conditions: nominal temperature of 4° C.
Protocol: In method I, the mobile phase of liquid chromatography was run on 0.1% formic acid in acetonitrile, and the elution volume was 10 ul. In method II, the mobile phase was run in 0.1% formic acid in methanol/water (98/2, volume to volume), and the elution volume was 5 ul.

[4] = Freeze/thaw cycle stability in human plasma; conditions: three freeze/thaw cycles at approximately −70° C.
Protocol: The following samples were also analyzed either in conjunction with one of the precision and accuracy runs or in one of the additional validation runs. Samples from six lots of control human plasma for specificity. Samples from six lots of control human plasma fortified with internal standard for specificity. Two concentration levels of unextracted QC-samples in triplicate (solvent standards) were analyzed for the evaluation of the recovery of sodium 2,2-dimethylbutyrate and DMV in human plasma. Two levels of QC samples (Low QC and High QC in triplicate) were subjected to three freeze/thaw cycles at approximately −70° C. prior to extraction to evaluate freeze/thaw stability. Two levels of QC samples (Low QC and High QC in triplicate) were placed on the bench top for approximately 17 hours prior to extraction for the evaluation of the bench top stability. Triplicate low QC samples and triplicate high QC samples were stored for one month and three months in a freezer at approximately −70° C., and then extracted and analyzed to evaluate long term stability in human plasma. Two levels of extracted QC samples (Low QC and High QC) were re-analyzed after approximately 71 hours in the autosampler at room temperature to evaluate the extract autosampler stability. Two levels of extracted QC samples (Low QC and High QC) were re-analyzed after approximately 8 hours in the freezer at approximately −20° C. to evaluate the extract freeze stability. Three aliquots of a dilution QC sample diluted 10-fold. Triplicate dilutions of the old stock solution (stored at approximately 4° C.) and new stock solutions prepared at intervals of two weeks and one month. Statistical calculations in the report tables were calculated from unrounded concentration values taken directly from the raw data. The concentration values were rounded for display purposes.
The stability of sodium 2,2-dimethylbutyrate in human plasma was evaluated at approximately −70° C. for three cycles using QC-Low and QC-High samples in triplicate. The freeze time was at least 12 to 24 hours, with a minimum thaw time of one hour. The CV % values for the QC-Low and QC-High stability samples are 3.3% and 9.8%, respectively. To calculate the RE %, the measured mean concentration was compared to the nominal concentration. The RE % values for the QC-Low and QC-High stability samples are 2.3% and −5.5%, respectively.

[5] = Short-term stability in human urine at room temperature; conditions: unextracted, bench-top light, six hours, 0.3, 19 and 38 μg/ml
Protocol: The applicability of the testing methodology to analyze samples stored under different conditions was analyzed. First, to assess short-term stability of DMB in human urine, samples at 0.3, 19 and 38 μg/ml, 92.3% of DMB were maintained unextracted at room temperature and at bench-top light levels for six hours. […] Second, to assess freeze/thaw stability of DMB in human urine, samples at 0.3, 19 and 38 μg/ml, 92.3% of DMB were stored at −70° C. and thawed. This process was repeated twice and samples after each freezing were analyzed for DMB as described. For each concentration and each freezing/thawing sample, the % CV was no more than 15%.

In the case of CCC(C)(C)C(=O)[O-].[Na+] [Sodium 2,2-Dimethylbutyrate], the “Stability after freeze/thaw cycles” value [1] is reported as “stable”, the “Freeze/thaw cycle stability, Mean concentration” value ([1]; QC-High, nominal 40.0 μg/mL) is reported as 36.8 µg/mL and the “Freeze/thaw cycle stability, RE % (mean vs nominal)” value (“Freeze/thaw cycle stability, RE %” below) ([1]; QC-High, nominal 40.0 μg/mL) is reported as −8.1%. The “Freeze/thaw cycle stability, concentration found (replicate)” value (from here on “Freeze/thaw cycle stability … (replicate)”) ([1]; QC-High, nominal 40.0 μg/mL) was 36.2 μg/mL (2×) and 37.9 μg/mL, the “Freeze/thaw cycle stability, Mean concentration” value ([1]; QC-Low, nominal 0.60 μg/mL) was 0.612 µg/mL and the “Freeze/thaw cycle stability, RE %” value ([1]; QC-Low, nominal 0.60 μg/mL) was 1.9%. For the same molecule, the “Freeze/thaw cycle stability … (replicate)” value ([1]; QC-Low, nominal 0.60 μg/mL) was 0.603 µg/mL and 0.620 µg/mL and 0.612 µg/mL, the “Time stable on bench top” value ([2]; ambient bench top storage) was “approximately 12.5 hours” and the “Measured concentration, QC-Low” value ([2]; bench top room temperature, nominal 0.60 μg/mL, individual replicates) was 0.600 µg/mL and 0.677 µg/mL and 0.660 µg/mL. The “Measured concentration, QC-High” value ([2]; bench top room temperature, nominal 40.0 μg/mL, individual replicates) was 45.6 µg/mL and 37.9 µg/mL and 47.4 µg/mL, the “Mean concentration, QC-Low” value ([2]; bench top, nominal 0.60 μg/mL) was 646 ng/mL and the “RE %, QC-Low” value ([2]; bench top, nominal 0.60 μg/mL) was 7.6%. For the same molecule, the “Mean concentration, QC-High” value ([2]; bench top, nominal 40.0 μg/mL) was 43600 ng/mL, the “RE %, QC-High” value ([2]; bench top, nominal 40.0 μg/mL) was 9.1% and the “Bench top stability, RE % (mean vs nominal)” value ([2]; QC-High) was 9.1%. The “Bench top stability, RE % (mean vs nominal)” value ([2]; QC-Low) was 7.6%, the “Time stock solutions are stable” value [3] was “at least 115 days” and the “Stability after freeze/thaw cycles” value [4] was “stable”. For the same molecule, the “Freeze/thaw cycle stability, Mean concentration” value ([4]; QC-High, nominal 40.0 μg/mL) was 37.8 µg/mL, the “Freeze/thaw cycle stability, RE %” value ([4]; QC-High, nominal 40.0 μg/mL) was −5.5% and the “Freeze/thaw cycle stability … (replicate)” value ([4]; QC-High, nominal 40.0 μg/mL) was 41.9 µg/mL and 36.8 µg/mL and 34.7 µg/mL. The “Freeze/thaw cycle stability, Mean concentration” value ([4]; QC-Low, nominal 0.60 μg/mL) was 0.614 µg/mL, the “Freeze/thaw cycle stability, RE %” value ([4]; QC-Low, nominal 0.60 μg/mL) was 2.3% and the “Freeze/thaw cycle stability … (replicate)” value ([4]; QC-Low, nominal 0.60 μg/mL) was 0.615 µg/mL and 0.593 µg/mL and 0.633 µg/mL. The “Short-term stability in human urine” value [5] was “stable”.
